Source: patent US11576892B2, “Benzopyran derivatives and uses thereof” (Novation Pharmaceuticals Inc., priority 2015, dated 2023)

Legend:
IFN-gamma = test: LPS-induced cytokine release in mice, serum IFN-gamma; type: in vivo; conditions: 100 mg/kg pre-treatment; serum 4 h post LPS; CD-1 mouse
Description: (§1) Compounds were evaluated on intra-peritoneal LPS-induced cytokine release measured in serum in the CD-1 mouse. Vehicle, Test item and positive control were administered 1 h before LPS injection as well 30 min post LPS injection (except as otherwise varied herein). In serum samples collected at 4 h post LPS injection, following cytokines were measured by multiplex on MSD 10 V-plex platform: TNF-alpha, IFN-gamma, IL-1beta, IL-2, IL-4, IL-5, IL-6, IL-10, IL-12, KC/GRO. All cytokines except IL-5 were induced by LPS injection (compared with saline injection).
(§2) Serum samples collected at 4h post LPS challenge were analyzed in duplicate wells using multiplex on MSD 10 V-plex platform. […] FIG. 1: Effect of test compounds 333 (TI1) and 1781 (TI2) on IFN-gamma levels in serum of LPS treated mice. FIG. 2: Effect of test compounds 333 (TI1) and 1781 (TI2) on IFN-gamma levels in serum of LPS treated mice (values of individual animals)

IL-1β release from PBMCs = IL-1β release from PBMCs measured by ELISA; type: cell-based; conditions: LPS or PHA stimulated human PBMCs
Description: (§3) Mononuclear cells are obtained from the blood of healthy volunteers via centrifugation and cultivated on tissue culture dishes with the test compound at various concentrations Schnyder, Bollinger et al. (1990). Inhibition of interleukin-1 release by IX 207-887. Agents Actions. 30: 350-362. Fresh human mononuclear cells were isolated on Ficoll-Paque gradient and washed several times. Fresh medium, test compound and LPS (10 μg/ml) or PHA (5 μg/ml) as stimulant are added and the monocytes incubated for a further day. The media are then removed and clarified by centrifugation at 1000×g for 10 min. Samples are stored at […] until the determinations can be made. IFNγ, IL 1β, IL 6, and IL-17 are determined using commercially available ELISA kits.

IL-4 = test: LPS-induced cytokine release in mice, serum IL-4; type: in vivo; conditions: 100 mg/kg pre-treatment; serum 4 h post LPS; CD-1 mouse
Description: as §1, §2

TNF-alpha = test: LPS-induced cytokine release in mice, serum TNF-alpha; type: in vivo; conditions: 100 mg/kg pre-treatment; serum 4 h post LPS; CD-1 mouse
Description: as §1, §2

[1] = system: IL-23 release from THP 1 cells; test: IL-23 release from THP 1 cells measured by ELISA; type: cell-based, human; conditions: IFNγ/LPS-stimulated THP 1 cells
Description: (§4) The THP 1 cell line is generally available and is described by Tsuchia et. al. Tsuchiya, Yamabe et al. (1980). Establishment and characterization of a human acute monocytic leukemia cell line (THP-1). Int J Cancer. 26: 171-176.
(§5) 900 μl THP 1 cells (0.5×10^6 cells) together with 100 Uγ interferon/0.9 ml RPMI 1640 medium (containing 2 mM L glutamine and 5% heat inactivated fetal calf serum) are pipetted into 24-well culture plates. 100 μl of the compound to be tested are then added. After 3 hours at 37° C. in 5% CO2/95% air, 10 μl lipopolysaccharide (LPS) 500 μg/ml is added and the incubation continued for a further 24 hours. Appropriate controls (with and without stimulus, solvent) are also included. The media are then removed and clarified by centrifugation at 1000 g for 10 min. Samples are stored at […] until the determinations can be made. IL 1β, IL 6 IL-12, and IL-23 assays are determined using commercially available ELISA kits. In these tests, the compounds of the disclosure may inhibit IL-1β, IL-6, IL-12 and IL-23 release at a concentration of about 10 to 50 μM. The compounds are non-toxic based on resazurin measurements as described in Didiot, Hewett et al. (2013). Identification of cardiac glycoside molecules as inhibitors of c-Myc IRES-mediated translation. J Biomol Screen. 18: 407-419.

[2] = system: IL-1β release from THP 1 cells; test: IL-1β release from THP 1 cells measured by ELISA; type: cell-based, human; conditions: IFNγ/LPS-stimulated THP 1 cells
Description: as §4, §5

IL-12 = test: LPS-induced cytokine release in mice, serum IL-12; type: in vivo; conditions: 100 mg/kg pre-treatment; serum 4 h post LPS; CD-1 mouse
Description: as §1, §2

IFNγ release from PBMCs = IFNγ release from PBMCs measured by ELISA; type: cell-based; conditions: 5 μM, human PBMCs
Description: as §3

[3] = system: IL-6 release from THP 1 cells; test: IL-6 release from THP 1 cells measured by ELISA; type: cell-based, human; conditions: IFNγ/LPS-stimulated THP 1 cells, 24 h
Description: as §4, §5

IL-6 release from PBMCs = IL-6 release from PBMCs measured by ELISA; type: cell-based; conditions: LPS or PHA stimulated human PBMCs
Description: as §3

IL-12 p40 mRNA = test: mRNA stability reporter gene (luciferase) assay, IL-12 p40; type: cell-based; conditions: 10 μM, 24 h, n.a. = no activity
Description: (§6) The basic principle of a reporter gene assay for determining compounds that destabilize mRNA is described in detail in WO 00/39314. A number of these assays for various drug targets have been developed and were tested with the compounds described in this disclosure. For THP-1 cells, compound is added at the time of the addition of LPS and luciferase measurements are taken 24 hours later or as indicated. For other cell lines, cells were plated in 96 well plates at 5*10^5 cells per 100 ul per well and incubated over night at 37° C. Compounds were then added and luciferase activity was measured after 24 hours. The activity was compared to other mRNA stability assays established for a range of other drug targets and found to be specific for IL-6, IL-12p40 and IL-23p19. Luciferase activity in the IL-6, IL-12 and IL-23 assays was inhibited by 10 μM benzopyran derivatives by >40% (Table IV).

IL-23 p19 mRNA = test: mRNA stability reporter gene (luciferase) assay, IL-23 p19; type: cell-based; conditions: 10 μM, 24 h, n.a. = no activity
Description: as §6

IL-6 mRNA [4] = test: mRNA stability reporter gene (luciferase) assay, IL-6; type: cell-based; conditions: 24 h; for IC50: luciferase reporter
Description: as §6

IL-6 mRNA [5] = test: IL-6 mRNA levels in IFN-γ/LPS-stimulated THP-1 cells (RT-PCR); type: cell-based, human; conditions: γIFN/LPS, 24h, compounds 10 μM, RT-PCR vs β-actin
Description: Total RNA was isolated at t=24 h from IFN-γ/LPS-stimulated THP-1 cells exposed to compounds (10 μM) or DMSO (solvent control) for 24 […], using the RNeasy Midi Kit (Qiagen), according to the manufacturer's instructions, and eluted in DEPC-treated Milli-Q H2O. Quantity and purity of RNA were determined by absorbance at 260 and 280 nm.
For RT-PCR analysis, 1 μg of total RNA was reverse transcribed using AMV reverse transcriptase (Life Sciences Inc., St. Petersburg, Fla.), then amplified by the PCR method. Each PCR reaction also contained a set of β-actin primers as internal control. The levels of the expected PCR product were compared to the constant levels of β-actin. The size of the PCR products was compared to MspI digested pBR322 standards (New England Biolabs). PCR products were analyzed on a 4% agarose gel.
Nucleotide sequences for the oligonucleotide 5′ and 3′ primers, respectively, were: […]

IL-17 release from PBMCs = IL-17 release from PBMCs measured by ELISA; type: cell-based; conditions: human PBMCs
Description: as §3

DNMT1 mRNA = test: mRNA stability reporter gene (luciferase) assay, DNMT1; type: cell-based; conditions: 10 μM, 24 h, n.a. = no activity
Description: as §6

APP mRNA = test: mRNA stability reporter gene (luciferase) assay, APP; type: cell-based; conditions: 10 μM, 24 h, n.a. = no activity
Description: as §6

SNCA mRNA = test: mRNA stability reporter gene (luciferase) assay, SNCA; type: cell-based; conditions: 10 μM, 24 h, n.a. = no activity
Description: as §6

Htt mRNA = test: mRNA stability reporter gene (luciferase) assay, Htt; type: cell-based; conditions: 10 μM, 24 h, n.a. = no activity
Description: as §6

Compound | IL-12 p40 mRNA stability assay (% inhibition) (IL-12 p40 mRNA) | IL-23 p19 mRNA stability assay (% inhibition) (IL-23 p19 mRNA) | Effect on LPS-induced increase in serum IFN-gamma level (IFN-gamma) | IL-1β release from PBMCs (% control) (IL-1β release from PBMCs; 2.5 μM) | IL-1β release from PBMCs (% control) (IL-1β release from PBMCs; 5 μM) | IL-1β release from PBMCs (% control) (IL-1β release from PBMCs; 10 μM) | IL-1β release from PBMCs (% control) (IL-1β release from PBMCs; 20 μM) | Effect on serum IL-4 (IL-4) | Effect on serum TNF-alpha (TNF-alpha) | IL-23 release from THP 1 cells, % control at 10 μM [1] [% control] | IL-1β release from THP 1 cells, % control at 10 μM [2] [% control] | IFNγ release from PBMCs, % control (24 h) (IFNγ release from PBMCs) [% control] | IL-6 release from THP 1 cells, % control ([3]; 10 μM) [% control] | IL-6 release from THP 1 cells, % control ([3]; 40 μM) [% control] | IL-6 release from THP 1 cells, % control ([3]; 100 μM) [% control] | IL-6 release from PBMCs (% control) (IL-6 release from PBMCs; 2.5 μM) | IL-6 release from PBMCs (% control) (IL-6 release from PBMCs; 5 μM) | IL-6 release from PBMCs (% control) (IL-6 release from PBMCs; 10 μM) | IL-6 release from PBMCs (% control) (IL-6 release from PBMCs; 20 μM) | IL-6 mRNA analysis, % ctrl (IL-6 mRNA [5]) [% ctrl] | further results
CC(=O)Oc1ccc2c(=O)c(Oc3ccccc3)coc2c1 [Compound 1782] | – | – | – | 123 | 115 | 109 | 89 | – | – | 93 | 100 | – | 56 | 57 | 28 | 106 | 139 | 89 | 61 | 93 | –
CC(=O)Oc1ccc2c(=O)c(Oc3ccc(C(=O)O)cc3)coc2c1 [Compound 276] | – | – | – | – | – | – | – | – | – | – | – | 100 | – | – | – | – | – | – | – | – | IL-17 release from PBMCs, % control (48 h) (IL-17 release from PBMCs; 2.5 μM): 79 % control; IL-17 release from PBMCs, % control (48 h) (IL-17 release from PBMCs; 5 μM): 46 % control; IL-17 release from PBMCs, % control (48 h) (IL-17 release from PBMCs; 10 μM): 57 % control
COC(=O)c1ccc(Oc2coc3cc(O)ccc3c2=O)cc1 [Compound 333, methyl 4-[(7-hydroxy-4-oxo-4H-chromen-3-yl)oxy]benzoate] | 72 | 76 | significantly blocked | 105 | 91 | 58 | 45 | trend of effect | trend of effect | 68 | 49 | 43 | 48 | 43 | 35 | 121 | 158 | 176 | 68 | 94 | Effect on serum IL-12 (IL-12): trend of effect; IL-17 release from PBMCs, % control (48 h) (IL-17 release from PBMCs; 2.5 μM): 93 % control; IL-17 release from PBMCs, % control (48 h) (IL-17 release from PBMCs; 5 μM): 80 % control; IL-17 release from PBMCs, % control (48 h) (IL-17 release from PBMCs; 10 μM): 41 % control; IC50 (IL-6 mRNA [4]): 2510 nM

Continued, in another order:

IL-12 p40 mRNA stability assay (% inhibition) (IL-12 p40 mRNA) | IL-23 p19 mRNA stability assay (% inhibition) (IL-23 p19 mRNA) | Compound | Effect on LPS-induced increase in serum IFN-gamma level (IFN-gamma) | IL-1β release from PBMCs (% control) (IL-1β release from PBMCs; 2.5 μM) | IL-1β release from PBMCs (% control) (IL-1β release from PBMCs; 5 μM) | IL-1β release from PBMCs (% control) (IL-1β release from PBMCs; 10 μM) | IL-1β release from PBMCs (% control) (IL-1β release from PBMCs; 20 μM) | Effect on serum IL-4 (IL-4) | Effect on serum TNF-alpha (TNF-alpha) | IL-23 release from THP 1 cells, % control at 10 μM [1] [% control] | IL-1β release from THP 1 cells, % control at 10 μM [2] [% control] | IFNγ release from PBMCs, % control (24 h) (IFNγ release from PBMCs) [% control] | IL-6 release from THP 1 cells, % control ([3]; 10 μM) [% control] | IL-6 release from THP 1 cells, % control ([3]; 40 μM) [% control] | IL-6 release from THP 1 cells, % control ([3]; 100 μM) [% control] | IL-6 release from PBMCs (% control) (IL-6 release from PBMCs; 2.5 μM) | IL-6 release from PBMCs (% control) (IL-6 release from PBMCs; 5 μM) | IL-6 release from PBMCs (% control) (IL-6 release from PBMCs; 10 μM) | IL-6 release from PBMCs (% control) (IL-6 release from PBMCs; 20 μM) | IL-6 mRNA analysis, % ctrl (IL-6 mRNA [5]) [% ctrl] | further results
62 | 41 | COc1ccc(Oc2coc3cc(O)ccc3c2=O)cc1 [Compound 1781] | significantly blocked | 136 | 137 | 104 | 104 | trend of effect | trend of effect | 100 | 100 | 75 | 74 | 64 | 55 | 115 | 127 | 83 | 57 | 92 | Effect on serum IL-12 (IL-12): trend of effect; IL-6 mRNA stability assay (% inhibition) (IL-6 mRNA [4]; 10 μM, luciferase, n.a. = no activity): 84 % inhibition
64 | 94 | COc1cc(O)c2c(c1OC)/C=C/C[C@H](O)[C@H](O)C(=O)/C=C\C[C@H](C)OC2=O [RAA, radicicol analog A, reference compound] | – | 4 | 4 | 4 | 4 | – | – | – | – | – | 3 | 2 | 3 | 10 | 9 | 11 | 11 | – | DNMT1 mRNA stability assay (% inhibition) (DNMT1 mRNA): 19 % inhibition; APP mRNA stability assay (% inhibition) (APP mRNA): 5 % inhibition; SNCA mRNA stability assay (% inhibition) (SNCA mRNA): 25 % inhibition; IC50 (IL-6 mRNA [4]; unit printed truncated): 128 nM; Htt mRNA stability assay (% inhibition) (Htt mRNA): 35 % inhibition
